Assay results: US7576094B2, “Spiro derivatives as lipoxygenase inhibitors” (Eli Lilly and Company, priority 2004, dated 2009)

biological target: T1, human recombinant 5-Lipoxygenase (Homo sapiens, UniProt P09917); test: 5-Lipoxygenase Enzyme Assay; type: biochemical; conditions: 70 μM arachidonic acid, 10 minute incubation at room temperature, FOX reagent, absorbance at 620 nm; read-out: inhibition of 5-Lipoxygenase with an IC50
T1 sequence (P09917 1-674): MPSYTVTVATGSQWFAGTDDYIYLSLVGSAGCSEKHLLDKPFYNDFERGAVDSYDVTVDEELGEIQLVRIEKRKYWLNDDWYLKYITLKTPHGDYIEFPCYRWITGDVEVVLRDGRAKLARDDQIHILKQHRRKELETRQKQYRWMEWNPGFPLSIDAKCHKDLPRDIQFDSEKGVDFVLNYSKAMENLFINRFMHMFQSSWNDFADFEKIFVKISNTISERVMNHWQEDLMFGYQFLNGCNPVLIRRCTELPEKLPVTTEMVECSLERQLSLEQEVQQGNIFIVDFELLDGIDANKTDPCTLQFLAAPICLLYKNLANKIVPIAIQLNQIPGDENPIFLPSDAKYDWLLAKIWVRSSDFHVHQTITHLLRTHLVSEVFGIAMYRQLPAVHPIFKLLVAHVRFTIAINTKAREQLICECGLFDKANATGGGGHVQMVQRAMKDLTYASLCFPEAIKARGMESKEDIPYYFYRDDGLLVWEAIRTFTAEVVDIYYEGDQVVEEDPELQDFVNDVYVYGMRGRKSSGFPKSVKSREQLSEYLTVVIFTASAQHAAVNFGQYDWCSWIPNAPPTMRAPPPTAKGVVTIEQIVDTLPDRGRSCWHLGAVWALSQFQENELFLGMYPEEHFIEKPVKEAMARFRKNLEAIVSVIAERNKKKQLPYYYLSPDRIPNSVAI
Description: This procedure was used for measuring the enzymatic activity of human recombinant 5-Lipoxygenase using a colorimetric method based on the ferric oxidation of xylenol orange.
• 96 well flat bottom microfilter plates (VWR, Catalog # 62402-933 9295) • Lipoxygenase screening assay buffer (Cayman, Catalog # 760710) • Human recombinant 5-Lipoxygenase (Cayman, Catalog # 60402) • Arachidonic Acid (Sigma, Catalog # A3555) • Xylenol orange tetra sodium salt (Aldrich, Catalog # 227854) • Iron (II) sulfate heptahydrate (Sigma, Catalog # F7002) • Sulfuric acid (95-98%) [18 M] • Methanol Procedure
Human recombinant 5-Lipoxygenase (Cayman Cat # 60402) was used in this assay. The test compound and/or vehicle was added to 0.5 μL 5-Lipoxygenase in 50 mM Tris-HCl buffer, pH 7.4. The reaction was initiated by addition of 70 μM arachidonic acid in Tris-HCl buffer, pH 7.4, and terminated after a 10 minute incubation at room temperature by addition of FOX reagent (25 mM sulfuric acid, 100 μM xylenol orange, 100 μM iron (II) sulfate, methanol:water 9:1). The yellow color of acidified xylenol orange was converted to a blue color by the lipid hydroperoxide-mediated oxidation of Fe^2+ ions and the interaction of the resulting Fe^3+ ions with the dye. The complex was allowed to form during a 1 hour incubation at room temperature with shaking. Absorbance of the Fe^3+ complex was then measured at […] using a spectrophotometer.
Negative controls contained enzyme during the incubation step but substrate was not added until after the FOX reagent. Compounds were screened at 5 concentrations in triplicate starting at 10 μM

IC50, < 300 nM:
Cc1cc2c(c(C)c1O)CCC1(CCC1)N2Cc1ccc(Cl)cc1 [1′-(4-chlorobenzyl)-5′,7′-dimethyl-3′,4′-dihydro-1′H-spiro[cyclobutane-1,2′-quinolin]-6′-ol]
Cc1c(C)c2c(c(C)c1O)C(O)C1(CCC1)CN2c1ccc(Cl)cc1 (stereo not drawn) [1′-(4-chlorophenyl)-5′,7′,8′-trimethyl-2′,4′-dihydro-1′H-spiro[cyclobutane-1,3′-quinoline]-4′,6′-diol]
Cc1c(O)cc2c(c1C)N(c1ccc(O)cc1)CC1(CCC1)C2 [1′-(4-hydroxyphenyl)-7′,8′-dimethyl-2′,4′-dihydro-1′H-spiro[cyclobutane-1,3′-quinolin]-6′-ol]
Cc1c(C)c2c(c(C)c1O)C(CN)=CC1(CCC1)O2 [4-(aminomethyl)-5,7,8-trimethylspiro[chromene-2,1′-cyclobutan]-6-ol]
CCONC1CC2(CCC2)Oc2cc(CC)c(O)c(CC)c21 (stereo not drawn) [4-(ethoxyamino)-5,7-diethyl-3,4-dihydrospiro[chromene-2,1′-cyclobutan]-6-ol]
CCONC1CC2(CCC2)Oc2c(C)c(C)c(O)c(CC)c21 (stereo not drawn) [4-(ethoxyamino)-5-ethyl-7,8-dimethyl-3,4-dihydrospiro[chromene-2,1′-cyclobutan]-6-ol]
CONC1CC2(CCC2)Oc2c(C)c(C)c(O)c(C)c21 (stereo not drawn) [4-(methoxyamino)-5,7,8-trimethyl-3,4-dihydrospiro[chromene-2,1′-cyclobutan]-6-ol]
CON(C)C1CC2(CCC2)Oc2cc(C)c(O)c(C)c21 (stereo not drawn) [4-[methoxy(methyl)amino]-5,7-dimethyl-3,4-dihydrospiro[chromene-2,1′-cyclobutan]-6-ol]
Cc1cc2c(c(C)c1O)C(OC(C)C)CC1(CCC1)O2 (stereo not drawn) [4-isopropoxy-5,7-dimethyl-3,4-dihydrospiro[chromene-2,1′-cyclobutan]-6-ol]
Cc1c(C)c2c(c(C)c1OC(=O)n1ccnc1)CCC1(CCC1)O2 [5,7,8-trimethyl-3,4-dihydrospiro[chromene-2,1′-cyclobutan]-6-yl 1H-imidazole-1-carboxylate]
Cc1c(C)c2c(c(C)c1OC(=O)CN(C)C)CCC1(CCC1)O2 [5,7,8-trimethyl-3,4-dihydrospiro[chromene-2,1′-cyclobutan]-6-yl (dimethylamino)acetate]
CCc1cc2c(c(CC)c1O)C(O)C1(CCC1)CO2 (stereo not drawn) [5,7-diethylspiro[chroman-3,1′-cyclobutane]-4,6-diol]
CONCc1c2c(c(C(C)C)c(O)c1C(C)C)CCC1(CCC1)O2 [5,7-diisopropyl-8-[(methoxyamino)methyl] 3,4-dihydrospiro[chromene-2,1′-cyclobutan]-6-ol]
CCc1c(O)c(C)c(C)c2c1C(NOC)CC1(CCC1)O2 (stereo not drawn) [5-ethyl-4-(methoxyamino)-7,8-dimethyl-3,4-dihydrospiro[chromene-2,1′-cyclobutan]-6-ol]
Cc1c(C)c2c(c(C)c1OC(=O)CN(C)C)CCC1(CCC1)S2 [5′,7′,8′-trimethyl-3′,4′-dihydrospiro[cyclobutane-1,2′-thiochromen]-6′-yl (dimethylamino)acetate]
CC(C)c1c(O)c(C(C)C)c2c(c1C=O)OC1(CCC1)CC2 [6-hydroxy-5,7-diisopropyl-3,4-dihydrospiro[chromene-2,1′-cyclobutane]-8-carbaldehyde]
CO/N=C1\CC2(CCC2)Oc2cc(C)c(O)c(C)c21 [6-hydroxy-5,7-dimethylspiro[chromene-2,1′-cyclobutan]-4(3H)-one O-methyloxime]
Cc1c2c(c(C)c(Cl)c1OC(=O)c1cccnc1)OC1(CCC1)CC2 [7-chloro-5,8-dimethyl-3,4-dihydrospiro[chromene-2,1′-cyclobutan]-6-yl nicotinate]
Cc1c(O)cc2c(c1C)N(c1ccc(S(C)(=O)=O)cc1)CC1(CCC1)C2 [7′,8′-dimethyl-1′-(4-(methylsulfonyl)phenyl)-2′,4′-dihydro-1′H-spiro[cyclobutane-1,3′-quinolin]-6′-ol]
Cc1c(O)cc2c(c1C)N(c1ccc(N3CCNCC3)nc1)CC1(CCC1)C2 [7′,8′-dimethyl-1′-(6-(piperazin-1-yl)pyridin-3-yl)-2′,4′-dihydro-1′H-spiro[cyclobutane-1,3′-quinolin]-6′-ol]
COCc1c(C)c(O)c(C)c2c1OC1(CCC1)CC2 [8-(methoxymethyl)-5,7-dimethyl-3,4-dihydrospiro[chromene-2,1′-cyclobutan]-6-ol]
Cc1c(O)cc(C(C)C)c2c1CCC1(CCC1)O2 [8-isopropyl-5-methyl-3,4-dihydrospiro[chromene-2,1′-cyclobutan]-6-ol]
CCO/N=C1\CC2(CCC2)Oc2cc(C)c(O)c(C)c21 [(4E)-6-hydroxy-5,7-dimethylspiro[chromene-2,1′-cyclobutan]-4(3H)-one O-ethyloxime]
CCO/N=C1/CC2(CCC2)Oc2cc(C)c(O)c(C)c21 [(4Z)-6-hydroxy-5,7-dimethylspiro[chromene-2,1′-cyclobutan]-4(3H)-one O-ethyloxime]
CCCc1ccc([S+](=O)([O-])NCCN2CC3(CCC3)Cc3cc(O)c(C)c(C)c32)cc1 [N-(2-(6′-hydroxy-7′,8′-dimethyl-2′,4′-dihydro-1′H-spiro[cyclobutane-1,3′-quinoline]-1′-yl)ethyl)-4-propylbenzenesulfonamide]
CC(=O)NC1CC2(CCC2)Oc2c(C)c(C)c(O)c(C)c21 (stereo not drawn) [N-(6-hydroxy-5,7,8-trimethyl-3,4-dihydrospiro[chromene-2,1′-cyclobutan]-4-yl)acetamide]
CCCC(=O)NC1CC2(CCC2)Oc2c(C)c(C)c(O)c(C)c21 (stereo not drawn) [N-(6-hydroxy-5,7,8-trimethyl-3,4-dihydrospiro[chromene-2,1′-cyclobutan]-4-yl)butanamide]
COC(=O)CN1CC2(CC2)Cc2cc(O)c(C)c(C)c21 [methyl 2-(6′-hydroxy-7′,8′-dimethyl-2′,4′-dihydro-1′H-spiro[cyclopropane-1,3′-quinoline]-1′-yl)acetate]
COC(=O)c1ccc(N2CC3(CCC3)Cc3cc(O)c(C)c(C)c32)cc1 [methyl 4-(6′-hydroxy-7′,8′-dimethyl-2′,4′-dihydro-1′H-spiro[cyclobutane-1,3′-quinoline]-1′-yl)benzoate]
COC(=O)c1ccc(CN2c3cc(C)c(O)c(C)c3CCC23CCC3)cc1 [methyl 4-((6′-hydroxy-5′,7′-dimethyl-3′,4′-dihydro-1′H-spiro[cyclobutane-1,2′-quinoline]-1′-yl)methyl)benzoate]
